Measured values: patent US9517231B2, “Methods and pharmaceutical compositions for the treatment of symptoms of anxiety and panic using beta adrenergic receptor antagonist and muscarinic receptor antagonist combinations” (priority 2014, dated 2016)
Entries after “also recorded” stand apart in the source; their conditions may differ. Where a name gives a salt, the structure may show the parent alone. Read-outs that look alike come from different tables or passages of the source.

Experiments:
[1] = taste and mouth paresthesia of dose forms in humans
[2] = oral atenolol 50 mg, oral scopolamine HBr 0.3 mg; baseline and during sauna heat; cited from earlier work
[3] = oral atenolol 50-200 mg; ~10 bpm on placebo; cited from earlier work
[4] = cited from earlier work
[5] = healthy volunteers, CO2 inhalation; cited from earlier work
[6] = biological target: muscarinic acetylcholine receptors, all five human receptor subtypes; settings: cited from earlier work
[7] = liquid compositions, under or on the tongue
[8] = sublingual solid dose forms, HCl
[9] = oral 40 mg one hour prior to TSST

SMILES: CC(C)NCC(O)COc1cccc2ccccc12 (stereo not drawn) [Propranolol HCl]
- mouth paresthesia [1, 7]: produces mouth paresthesia
- taste [1, 7]: “acidic” and “medicine” taste
- mouth/tongue paresthesia [1, 8]: delayed paresthesia of the tongue
- taste [1, 8]: “acidic” and “medicine” taste

SMILES: CC(C)NCC(O)COc1ccc(CC(N)=O)cc1 (stereo not drawn) [atenolol]
- mouth/tongue paresthesia ([1]; sublingual solid dose forms): neither property was observed; also recorded: lacked these undesirable characteristics; also recorded: do not produce mouth paresthesia
- taste ([1]; sublingual solid dose forms): neither property was observed; also recorded: lacked these undesirable characteristics; also recorded: do not have a taste
- cardiovascular effects (heart rate, blood pressure) [2]: reduced heart rate and blood pressure
- suppresses heart rate [3]: 23-24 bpm

SMILES: CC(C)NCC(O)COc1cccc2ccccc12 (stereo not drawn) [propranolol]
- mouth/tongue paresthesia ([1]; sublingual solid dose forms): Paresthesia
- taste ([1]; sublingual solid dose forms): undesirable taste
- BP or subjective stress ([4]; 80 mg one hour prior to TSST): did not significantly affect
- heart rate ([4]; 80 mg one hour prior to TSST): significantly reduced
- salivary cortisol ([4]; 80 mg one hour prior to TSST): increased
- salivary cortisol response ([4]; daily oral 80 mg): did not affect
- cognitive flexibility during stress [4, 9]: enhanced
- heart rate [4, 9]: significantly reduced
- systolic blood pressure [4, 9]: reduced
- heart rate [5]: significantly decreased
- psychic anxiolytic benefit [5]: did not provide

SMILES: CN1[C@@H]2C[C@@H](OC(=O)[C@H](CO)c3ccccc3)C[C@H]1[C@@H]1O[C@@H]12 [scopolamine]
- cardiovascular effects (heart rate, blood pressure) [2]: essentially no effect
- Ki [6]: 0.34 to 5.3 nM
